Data published in patent US20230382926A1, “COMPOUNDS AND USES THEREOF” (The University of The West Indies, priority 2022, published 2023).

Columns and labels:
Experiment in all cases: Rescue concentration, modified checkerboard MIC adjuvant assay
Assay type in all cases: cell-based
[1] = test system: Stenotrophomonas maltophilia MDR 7785; settings: S. maltophilia MDR 7785
Method in brief: (§1)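 Visual growth read after 24 h at 35° C. under aerobic conditions defines rescue concentration as the lowest compound concentration restoring antibiotic susceptibility at breakpoint (99.99% growth reduction). Antibiotic held fixed at CLSI susceptible breakpoint; compound serially diluted twofold; ca-MHB, 10^6 CFU/ml.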

[2] = test system: Acinetobacter baumannii clinical isolate 9978; settings: A. baumannii clinical isolate 9978
Method in brief: as §1

[3] = test system: Enterobacter cloacae ATCC BAA-1143; settings: E. cloacae ATCC BAA-1143
Method in brief: as §1

[4] = test system: Klebsiella pneumoniae ATCC BAA-2814; settings: K. pneumoniae ATCC BAA-2814
Method in brief: as §1

[5] = test system: Enterococcus faecalis ATCC 51299; settings: E. faecalis ATCC 51299
Method in brief: as §1

[6] = test system: Staphylococcus aureus ATCC BAA-2312; settings: S. aureus ATCC BAA-2312
Method in brief: as §1

[7] = test system: Streptococcus pneumoniae ATCC 49619; settings: S. pneumoniae ATCC 49619
[8] = test system: Escherichia coli ATCC 35150; settings: E. coli ATCC 35150
Method in brief: as §1

[9] = Cef at susceptible breakpoint 8 μg mL^−1
[10] = Ceph at susceptible breakpoint 8 μg mL^−1
[11] = Chl at susceptible breakpoint 8 μg mL^−1
[12] = Gen at susceptible breakpoint 4 μg mL^−1
[13] = Imi at susceptible breakpoint 2 μg mL^−1
[14] = Mero at susceptible breakpoint 2 μg mL^−1
[15] = Amox at susceptible breakpoint 8 μg mL^−1
[16] = Amp at susceptible breakpoint 8 μg mL^−1
[17] = Azi at susceptible breakpoint 16 μg mL^−1
[18] = Col at susceptible breakpoint 8 μg mL^−1
[19] = Dox at susceptible breakpoint 4 μg mL^−1
[20] = Imi at susceptible breakpoint 1 μg mL^−1
[21] = Tet at susceptible breakpoint 4 μg mL^−1
[22] = Tri at susceptible breakpoint 8 μg mL^−1

With `Oc1ccc(C(c2c[nH]c3ncccc23)c2c[nH]c3ncccc23)cc1` [SP-7azaBIM 135, 4-(bis(1H-pyrrolo[2,3-b]pyridin-3-yl)methyl)phenol] the “Rescue concentration, Cef (8)” value [1, 9] was >128 µg/mL, the “Rescue concentration, Ceph (8)” value [1, 10] was >128 µg/mL and the “Rescue concentration, Chl (8)” value [1, 11] was >128 µg/mL. For the same molecule, the “Rescue concentration, Cip (2)” value ([1]; Cip at susceptible breakpoint 2 μg mL^−1) was >128 µg/mL, the “Rescue concentration, Gen (4)” value [1, 12] was >128 µg/mL and the “Rescue concentration, Imi (2)” value [1, 13] was >128 µg/mL. The “Rescue concentration, Mero (2)” value [1, 14] was >128 µg/mL, the “Rescue concentration, Tri (2)” value ([1]; Tri at susceptible breakpoint 2 μg mL^−1) was >128 µg/mL and the “Rescue concentration, Amox (8)” value [2, 15] was >127 µg/mL. The “Rescue concentration, Cef (8)” value [2, 9] was >128 µg/mL, the “Rescue concentration, Col (2)” value ([2]; Col at susceptible breakpoint 2 μg mL^−1) was >128 µg/mL and the “Rescue concentration, Gen (4)” value [2, 12] was >128 µg/mL. For the same molecule, the “Rescue concentration, Imi (2)” value [2, 13] was >128 µg/mL, the “Rescue concentration, Mero (2)” value [2, 14] was >128 µg/mL and the “Rescue concentration, Pol B (2)” value ([2]; Pol B at susceptible breakpoint 2 μg mL^−1) was >128 µg/mL. The “Rescue concentration, Amp (8)” value [3, 16] was 64 µg/mL, the “Rescue concentration, Azi (16)” value [3, 17] was >128 µg/mL and the “Rescue concentration, Ceph (8)” value [3, 10] was >128 µg/mL. For the same molecule, the “Rescue concentration, Chl (8)” value [3, 11] was >128 µg/mL, the “Rescue concentration, Col (8)” value [3, 18] was 64 µg/mL and the “Rescue concentration, Dox (4)” value [3, 19] was >128 µg/mL. For the same molecule, the “Rescue concentration, Gen (4)” value [3, 12] was >128 µg/mL, the “Rescue concentration, Imi (1)” value [3, 20] was 32 µg/mL and the “Rescue concentration, Tet (4)” value [3, 21] was >128 µg/mL. The “Rescue concentration, Amox (8)” value [4, 15] was >128 µg/mL, the “Rescue concentration, Amp (8)” value [4, 16] was >128 µg/mL and the “Rescue concentration, Aze (4)” value ([4]; Aze at susceptible breakpoint 4 μg mL^−1) was >128 µg/mL. For the same molecule, the “Rescue concentration, Azi (16)” value [4, 17] was >128 µg/mL, the “Rescue concentration, Cef (16)” value ([4]; Cef at susceptible breakpoint 16 μg mL^−1) was >128 µg/mL and the “Rescue concentration, Ceph (8)” value [4, 10] was >128 µg/mL. The “Rescue concentration, Chl (8)” value [4, 11] was >128 µg/mL, the “Rescue concentration, Col (8)” value [4, 18] was >128 µg/mL and the “Rescue concentration, Dox (4)” value [4, 19] was >128 µg/mL. The “Rescue concentration, Gen (4)” value [4, 12] was >128 µg/mL, the “Rescue concentration, Imi (1)” value [4, 20] was >128 µg/mL and the “Rescue concentration, Tet (4)” value [4, 21] was >128 µg/mL. The “Rescue concentration, Amp (8)” value [5, 16] was >128 µg/mL, the “Rescue concentration, Chl (8)” value [5, 11] was >128 µg/mL and the “Rescue concentration, Dox (4)” value [5, 19] was >128 µg/mL. The “Rescue concentration, Ery (0.5)” value ([5]; Ery at susceptible breakpoint 0.5 μg mL^−1) was >128 µg/mL, the “Rescue concentration, Tri (8)” value [5, 22] was >128 µg/mL and the “Rescue concentration, Van (4)” value ([5]; Van at susceptible breakpoint 4 μg mL^−1) was >128 µg/mL. The “Rescue concentration, Azi (2)” value ([6]; Azi at susceptible breakpoint 2 μg mL^−1) was >128 µg/mL, the “Rescue concentration, Gen (4)” value [6, 12] was >128 µg/mL and the “Rescue concentration, Pen (0.12)” value ([6]; Pen at susceptible breakpoint 0.12 μg mL^−1) was >128 µg/mL. The “Rescue concentration, Tri (8)” value [6, 22] was >128 µg/mL, the “Rescue concentration, Van (2)” value ([6]; Van at susceptible breakpoint 2 μg mL^−1) was >128 µg/mL and the “Rescue concentration, Amox (2)” value ([7]; Amox at susceptible breakpoint 2 μg mL^−1) was >128 µg/mL. The “Rescue concentration, Ery (0.25)” value ([7]; Ery at susceptible breakpoint 0.25 μg mL^−1) was >128 µg/mL, the “Rescue concentration, Imi (0.12)” value ([7]; Imi at susceptible breakpoint 0.12 μg mL^−1) was >128 µg/mL and the “Rescue concentration, Amp (8)” value [8, 16] was >128 µg/mL. The “Rescue concentration, Cip (0.25)” value ([8]; Cip at susceptible breakpoint 0.25 μg mL^−1) was >128 µg/mL, the “Rescue concentration, Dox (4)” value [8, 19] was >128 µg/mL and the “Rescue concentration, Gen (4)” value [8, 12] was >128 µg/mL. The “Rescue concentration, Imi (1)” value [8, 20] was 64 µg/mL.
